Results published in PubChem BioAssay AID328 (DTP/NCI, 2004).
Several values for one entry are separate records, joined by “and”; a condition that tells them apart may be missing. Identical values can stand only once. Inconclusive results and toxic doses are left out.

Tested on: BDF1 mice, P388 leukemia ip, median survival T/C
Assay: NCI In Vivo Anticancer Drug Screen. Data for tumor model P388 Leukemia (intraperitoneal) in B6D2F1 (BDF1) mice
Settings: endpoint: median survival time, higher = longer survival
Outline: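 Mice carrying the transplantable tumour receive compound or vehicle. Survival is followed in each arm, and the treated measure is divided by the vehicle measure.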

[1] = dose: 100.0 mg/kg/injection, schedule: Q04DX003 (ip), vehicle: saline
[2] = dose: 100.0 mg/kg/injection, schedule: Q01DX009 (ip), vehicle: saline with Tween-80
[3] = dose: 200.0 mg/kg/injection, schedule: Q01DX009 (ip), vehicle: saline with Tween-80
[4] = dose: 264.0 mg/kg/injection, schedule: Q04DX003 (ip), vehicle: saline with Tween-80
[5] = dose: 400.0 mg/kg/injection, schedule: Q01DX009 (ip), vehicle: saline with Tween-80
[6] = dose: 400.0 mg/kg/injection, schedule: Q04DX003 (ip), vehicle: saline with Tween-80
[7] = dose: 600.0 mg/kg/injection, schedule: Q04DX003 (ip), vehicle: saline with Tween-80
[8] = dose: 50.0 mg/kg/injection, schedule: Q01DX009 (ip), vehicle: saline with Tween-80
[9] = dose: 100.0 mg/kg/injection, schedule: Q04DX003 (ip), vehicle: Klucel (hydroxypropylcellulose) (HPC)
[10] = dose: 200.0 mg/kg/injection, schedule: Q04DX003 (ip), vehicle: Klucel (hydroxypropylcellulose) (HPC)
[11] = dose: 100.0 mg/kg/injection, schedule: Q04DX002 (ip), vehicle: saline with Tween-80
[12] = dose: 200.0 mg/kg/injection, schedule: Q04DX002 (ip), vehicle: saline with Tween-80
[13] = dose: 400.0 mg/kg/injection, schedule: Q04DX002 (ip), vehicle: saline with Tween-80
[14] = dose: 10.0 mg/kg/injection, schedule: Q04DX003 (ip), vehicle: saline
[15] = dose: 20.0 mg/kg/injection, schedule: Q04DX003 (ip), vehicle: saline
[16] = dose: 50.0 mg/kg/injection, schedule: Q04DX003 (ip), vehicle: saline with Tween-80
[17] = dose: 100.0 mg/kg/injection, schedule: Q04DX003 (ip), vehicle: saline with Tween-80
[18] = dose: 50.0 mg/kg/injection, schedule: Q01DX009 (ip), vehicle: Klucel (hydroxypropylcellulose) (HPC)

COC(=O)C1(C)CCc2c(ccc3ccccc23)C1=O (centres undefined)
T/C (dose: 100.0 mg/kg/injection, schedule: Q01DX001 (ip), vehicle: other): 100 % of control
T/C (dose: 200.0 mg/kg/injection, schedule: Q01DX001 (ip), vehicle: other): 95 % of control
T/C (dose: 400.0 mg/kg/injection, schedule: Q01DX001 (ip), vehicle: other): 113 % of control

ClCc1ccncc1
T/C [1]: 100 % of control
T/C (dose: 200.0 mg/kg/injection, schedule: Q04DX003 (ip), vehicle: saline): 100 % of control

Nc1nc(N)c2c(n1)CCCC2
T/C (dose: 6.25 mg/kg/injection, schedule: Q01DX009 (ip), vehicle: saline with Tween-80): 100 % of control
T/C (dose: 12.5 mg/kg/injection, schedule: Q01DX009 (ip), vehicle: saline with Tween-80): 90 % of control
T/C (dose: 25.0 mg/kg/injection, schedule: Q01DX009 (ip), vehicle: saline with Tween-80): 90 % of control

Cc1ccccc1-c1nc2c(N)nc(N)nc2nc1N
T/C [2]: 122 % of control
T/C [3]: 163 % of control
T/C [4]: 100 % of control and 104 % of control
T/C [5]: 200 % of control
T/C [6]: 118 % of control
T/C [7]: 118 % of control

CN(C)C(=S)SCC(=O)NC(CO)C(=O)O (centres undefined)
T/C [8]: 98 % of control
T/C [2]: 98 % of control
T/C [3]: 89 % of control

CC(=O)N(C)N(Cc1ccc(C#N)cc1)C(C)=O
T/C (dose: 25.0 mg/kg/injection, schedule: Q04DX003 (ip), vehicle: Klucel (hydroxypropylcellulose) (HPC)): 94 % of control
T/C (dose: 50.0 mg/kg/injection, schedule: Q04DX003 (ip), vehicle: Klucel (hydroxypropylcellulose) (HPC)): 100 % of control
T/C [9]: 99 % of control
T/C [10]: 100 % of control
T/C (dose: 400.0 mg/kg/injection, schedule: Q04DX003 (ip), vehicle: Klucel (hydroxypropylcellulose) (HPC)): 111 % of control

Cc1cc(=O)oc2cc3oc(N(C)c4ccccc4)nc(=O)c3cc12
T/C [11]: 100 % of control
T/C [12]: 92 % of control
T/C [13]: 102 % of control

CN1CCC(C=C2c3ccccc3Sc3ccccc32)C1 (centres undefined)
T/C (dose: 6.25 mg/kg/injection, schedule: Q01DX009 (ip), vehicle: saline): 99 % of control
T/C (dose: 12.5 mg/kg/injection, schedule: Q01DX009 (ip), vehicle: saline): 95 % of control
T/C (dose: 25.0 mg/kg/injection, schedule: Q01DX009 (ip), vehicle: saline): 100 % of control
T/C (dose: 50.0 mg/kg/injection, schedule: Q01DX009 (ip), vehicle: saline): 101 % of control

OCC1OCC(O)C(O)C1O (centres undefined)
T/C (dose: 12.5 mg/kg/injection, schedule: Q01DX010 (ip), vehicle: saline): 91 % of control
T/C (dose: 25.0 mg/kg/injection, schedule: Q01DX010 (ip), vehicle: saline): 108 % of control
T/C (dose: 32.0 mg/kg/injection, schedule: Q03HX024 (ip), vehicle: saline): 95 % of control
T/C (dose: 50.0 mg/kg/injection, schedule: Q01DX010 (ip), vehicle: saline): 108 % of control
T/C (dose: 64.0 mg/kg/injection, schedule: Q03HX024 (ip), vehicle: saline): 87 % of control
T/C (dose: 100.0 mg/kg/injection, schedule: Q01DX010 (ip), vehicle: saline): 91 % of control
T/C (dose: 128.0 mg/kg/injection, schedule: Q03HX024 (ip), vehicle: saline): 100 % of control
T/C (dose: 128.0 mg/kg/injection, schedule: Q04DX003 (ip), vehicle: saline): 87 % of control and 104 % of control
T/C (dose: 200.0 mg/kg/injection, schedule: Q01DX010 (ip), vehicle: saline): 110 % of control
T/C (dose: 256.0 mg/kg/injection, schedule: Q04DX003 (ip), vehicle: saline): 91 % of control and 100 % of control
T/C (dose: 512.0 mg/kg/injection, schedule: Q04DX003 (ip), vehicle: saline): 90 % of control
T/C (dose: 800.0 mg/kg/injection, schedule: Q01DX010 (ip), vehicle: saline): 115 % of control
T/C (dose: 1024.0 mg/kg/injection, schedule: Q04DX003 (ip), vehicle: saline): 100 % of control

Cc1oc(-c2ccccc2)nc1C(C)(O)c1ccccc1 (centres undefined)
T/C [11]: 118 % of control
T/C [12]: 103 % of control
T/C [13]: 112 % of control

COC(=O)C(Br)C(OC)c1ccc(C)cc1 (centres undefined)
T/C [2]: 100 % of control
T/C [3]: 100 % of control
T/C [5]: 95 % of control

CN=C(N)c1ccc(N=C(N)c2ccc(N=C(N)c3ccc(C(N)=NC)cc3)cc2)cc1
T/C [14]: 104 % of control
T/C [15]: 104 % of control
T/C (dose: 40.0 mg/kg/injection, schedule: Q04DX003 (ip), vehicle: saline): 116 % of control

Nc1ncc(-c2ccc(CNc3ccc(C(=O)NC(CC(=O)O)CC(=O)O)cc3)cc2)c(N)n1
T/C (dose: 2.0 mg/kg/injection, schedule: Q04DX003 (ip), vehicle: saline): 113 % of control
T/C (dose: 5.0 mg/kg/injection, schedule: Q04DX003 (ip), vehicle: saline): 104 % of control
T/C [14]: 104 % of control
T/C [15]: 109 % of control
T/C (dose: 30.0 mg/kg/injection, schedule: Q04DX003 (ip), vehicle: saline): 118 % of control
T/C [16]: 157 % of control
T/C (dose: 50.0 mg/kg/injection, schedule: Q04DX003 (ip), vehicle: saline): 177 % of control
T/C [17]: 242 % of control
T/C [1]: 213 % of control

NC(=S)N=Nc1c(O)[nH]c2ccccc12
T/C [18]: 119 % of control
T/C (dose: 100.0 mg/kg/injection, schedule: Q01DX009 (ip), vehicle: Klucel (hydroxypropylcellulose) (HPC)): 118 % of control
T/C (dose: 200.0 mg/kg/injection, schedule: Q01DX009 (ip), vehicle: Klucel (hydroxypropylcellulose) (HPC)): 115 % of control

c1c2c(cc3c1OC1=C(CCCCCCCCCC1)C3)OC1=C(CCCCCCCCCC1)C2
T/C [8]: 102 % of control
T/C [2]: 100 % of control
T/C [3]: 86 % of control

O=C(Nc1ccc(C2=NCCN2)cc1)c1ccc(C(=O)Nc2ccc(C3=NCCN3)cc2)c(F)c1
T/C [17]: 172 % of control
T/C (dose: 200.0 mg/kg/injection, schedule: Q04DX003 (ip), vehicle: saline with Tween-80): 213 % of control
T/C [4]: 226 % of control
T/C [6]: 250 % of control and 221 % of control
T/C [7]: 191 % of control

CC(=O)[C@]1(O)Cc2c(O)c3c(c(O)c2[C@@H](OC2CC(N)C(O)C(C)O2)C1)C(=O)c1c(O)cccc1C3=O (some centres undefined)
T/C (dose: 0.32 mg/kg/injection, schedule: Q04DX003 (ip), vehicle: water): 185 % of control
T/C (dose: 0.39 mg/kg/injection, schedule: Q04DX003 (ip), vehicle: water): 203 % of control
T/C (dose: 0.54 mg/kg/injection, schedule: Q04DX003 (ip), vehicle: water): 101 % of control
T/C (dose: 0.9 mg/kg/injection, schedule: Q04DX003 (ip), vehicle: water): 92 % of control
T/C (dose: 1.08 mg/kg/injection, schedule: Q04DX003 (ip), vehicle: water): 115 % of control

CNc1ccc(OC)cc1
T/C (dose: 100.0 mg/kg/injection, schedule: Q01DX009 (ip), vehicle: other): 100 % of control
T/C (dose: 200.0 mg/kg/injection, schedule: Q01DX009 (ip), vehicle: other): 104 % of control
T/C (dose: 400.0 mg/kg/injection, schedule: Q01DX009 (ip), vehicle: other): 104 % of control

C=CCC1(CCC)C(=O)NC(=O)NC1=O
T/C (dose: 25.0 mg/kg/injection, schedule: Q04DX003 (ip), vehicle: saline with Tween-80): 91 % of control
T/C [16]: 91 % of control
T/C [17]: 95 % of control

CCC(C)n1ncc2c(N(C)C)ncnc21 (centres undefined)
T/C (dose: 12.5 mg/kg/injection, schedule: Q01DX009 (ip), vehicle: Klucel (hydroxypropylcellulose) (HPC)): 100 % of control
T/C [18]: 92 % of control and 95 % of control
T/C [9]: 95 % of control
T/C [10]: 120 % of control

c1ccc2nc(-c3cc4ccccc4s3)ccc2c1
T/C (dose: 100.0 mg/kg/injection, schedule: Q04DX003 (ip), vehicle: saline sonified): 104 % of control
T/C (dose: 200.0 mg/kg/injection, schedule: Q04DX003 (ip), vehicle: saline sonified): 95 % of control
T/C (dose: 400.0 mg/kg/injection, schedule: Q04DX003 (ip), vehicle: saline sonified): 118 % of control
